This note sets out measurements from US20230219934A1, “2,3-DISUBSTITUTED PYRIDO[3,4-B]PYRAZINE-CONTAINING COMPOUNDS AS KINASE INHIBITORS” (Purdue Research Foundation, priority 2020, published 2023).

In series [1] the test system is some lung and colon cancers. The series is described as follows: NCI-60 potency comparison on lung and colon cancers. As to conditions: more potently than HSL212. It counts as cell-based. On the procedure:
(§1) According to the National Cancer Institute, Bethesda, Md. (the protocol of the Drug Evaluation Branch), the effects of compounds are measured as follows: Cell suspensions are diluted to a target cell density of 5000-40,000 cells per well (based on cell growth characteristics) in a 96-well microtiter plates. The test compounds were evaluated at five concentrations (10-fold dilutions) with the highest concentration being 100 μM. The incubation period was 48 h under 5% carbon dioxide atmosphere and 100% humidity. A sulforhodamine B assay was used to assay the cells. Optical densities of the wells were read by a plate reader the optical densities were processed into GI50 (the concentration that causes 50% growth inhibition).
(§2) The NCI renamed the IC50 value, the concentration of compound that causes 50% growth inhibition, as follows.
(§3) GI50=100×(T−T0)/(C−T0)=50, where T=the optical density of the test well after a 48-h period of exposure to test drug, T0=the optical density at time zero, C=the control optical density. The control is the well not treated with test agent (https://dtp.cancer.gov/databases_tools/docs/compare/compare_methodology.htm).

Series [2] deals with KM12 (colon and driven by TrkA kinase). The series is described as follows: NCI-60 GI50 determination, KM12. It counts as cell-based. As to conditions: Homo sapiens, NCI Developmental Therapeutics Program in-vitro testing, 48 h. The method, then: as §1, §2, §3
In the next series the test system is EKVX (NSCLC). The series is described as follows: NCI-60 GI50 determination, EKVX. It counts as cell-based. The note with it: Homo sapiens, NCI Developmental Therapeutics Program in-vitro testing, 48 h. On the procedure: as §1, §2, §3
The subject of series [3] is K562 cell line (leukemia). The series is described as follows: NCI-60 GI50 determination, K562. The series is classed as cell-based. As to conditions: Homo sapiens, NCI Developmental Therapeutics Program in-vitro testing, 48 h. On the procedure:
as §1, §2, §3

A short description of a further series: Oral bioavailability. The note with it: in vivo.
For series [4], the system named is cell lines harboring RET solvent front mutations. The series is described as follows: Inhibition of selpercatinib and pralsetinib-resistant cell lines. It counts as cell-based.
Series [5] concerns tumor harboring solvent front RET810 mutation. The series is described as follows: Growth of tumor harboring solvent front RET810 mutation. It counts as in vivo, mice. As to conditions: HSL476 at 25 mg/Kg (daily).
A further series is described as follows: Tolerability in mice. It counts as in vivo.
Another series concerns MiaPaCa-2. The series is described as follows: MIA PaCa-2 pancreatic cancer cell growth inhibition (CellTitre Blue viability). The series is classed as cell-based. The note with it: Homo sapiens, pancreatic cancer cell line, 72 hours. The method, then:
Cell Culture: MIA PaCa-2 cells were cultured in RPMI media supplemented with 10% fetal bovine serum, 1% GlutaMax Supplement (GIBCO™), 1% Penicillin-Streptomycin (GIBCO™). Cells were seeded in a 96-well plate at 1.1×10^4 cells/mL. Cells were incubated at […] for 24 hours after which plates were treated in triplicates with 10 uL of compound (0.6 μM in DMSO) that was further diluted in the same media (5 μL of compound into 145 μL of media). For IC50 compounds were tested at 9 different concentrations, initial concentration of 0.6 μM in DMSO and subsequently diluted by a third for the other 8 concentrations. This was incubated at […] for 72 hours after which 10 uL of The CellTitre Blue Cell Viability Assay (Promega, Madison Wis.) was added to each well and incubated at […] for 3 hours. Plates were read on a CYTATION™ 5 Cell Imaging Multi-Mode Reader (BioTek). Appropriate controls were used. Graphed using GraphPadPrism 5.0 Software.

The subject of series [6] is cell line harboring RET G810R. In words: Inhibition of cell line harboring RET G810R. The series is classed as cell-based. As to conditions: under similar conditions.

Broadly, the GI50 is the concentration that inhibits growth by half. Turning to `Cc1nc2cncc(C#Cc3cncc(C(=O)Nc4ccc(CN5CCN(C)CC5)c(C(F)(F)F)c4)c3)c2nc1C` [HSL211, 5-((2,3-dimethylpyrido[3,4-b]pyrazin-8-yl)ethynyl)-N-(4-((4-methylpiperazin-1-yl)methyl)-3-(trifluoromethyl)phenyl)nicotinamide], the “Potency relative to HSL212 on some lung and colon cancers” value in [1] was about 100 ×. Moreover, the GI50 in [2] is under 5 nM; with EKVX (NSCLC) it was 484 nM; in series [3], under 5 nM.
Take `CN1CCN(Cc2ccc(NC(=O)c3cncc(C#Cc4cncc5nccnc45)c3)cc2C(F)(F)F)CC1` [HSL212, N-(4-((4-methylpiperazin-1-yl)methyl)-3-(trifluoromethyl)phenyl) (pyrido[3,4-b]pyrazin-8-ylethynyl)nicotinamide]: the GI50 was 136 nM in series [2], over 50000 nM in the series on EKVX (NSCLC) and under 5 nM in series [3].
The IC50 is the concentration that gives 50% inhibition. A low value points to greater potency. On to `Cc1nc2cnc(N)c(C#Cc3cncc(C(=O)Nc4ccc(CN5CCN(C)CC5)c(C(F)(F)F)c4)c3)c2nc1C` [HSL476, 5-((7-amino-2,3-dimethylpyrido[3,4-b]pyrazin-8-yl)ethynyl)-N-(4-((4-methylpiperazin-1-yl)methyl)-3-(trifluoromethyl)phenyl)nicotinamide], for which, in “Oral bioavailability”, the Oral bioavailability result is “orally bioavailable”. Also, the IC50 in series [4] is under 20 nM; in the series with MiaPaCa-2, 25 nM; in series [6], 18 nM. For the same molecule, in [5], the “Effect on growth of tumor harboring solvent front RET810 mutation” value is recorded as “could reduce growth tumor”. Further, the Tolerability entry in the series “Tolerability in mice” was “well tolerated”.
Regarding `COc1ccc(CN2C3CC2CN(c2ccc(-c4cc(OCC(C)(C)O)cn5ncc(C#N)c45)cn2)C3)cn1` [Selpercatinib, reference compound], in series [5], the “Effect on growth of tumor harboring solvent front RET810 mutation” value is reported as “ineffective”. In addition, it took 2620 nM to reach half-maximal inhibition in series [6] (IC50).
For `Cc1ccc(C(=O)Nc2ccc(CN3CCN(C)CC3)c(C(F)(F)F)c2)cc1C#Cc1cnc2cccnn12` [ponatinib], in [6], the IC50 came out at 77 nM.
Still for that read-out and setting: to `CO[C@]1(C(=O)N[C@@H](C)c2ccc(-n3cc(F)cn3)nc2)CC[C@H](c2nc(C)cc(Nc3cc(C)[nH]n3)n2)CC1` [pralsetinib] belongs 7320 nM.
